These results are taken from PubChem BioAssay (NCI).

Several values for one entry are separate records, joined by “and”; a condition that tells them apart may be missing. Equal entries are not always repeated.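 Test compounds were applied to cells in 96-well plates for 48 hours at 5 doses. The concentration for 50% growth inhibition is given as GI50. The concentration for full growth arrest is given as TGI.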

Some test systems named below: M19-MEL melanoma; HCT-116 colon; KM12 colon; CAKI-1 renal; KM20L2 colon; SNB-75 CNS; UACC-257 melanoma; MDA-MB-231 breast; UACC-62 melanoma; OVCAR-4 ovarian.
Holding throughout (assay): inhibition of tumour cell growth, NCI panel, 48 h

In the case of `Cc1[nH]c(=O)nc(N/N=C/c2ccc(Cl)cc2)c1C(=O)Nc1ccc(Cl)cc1`, the TGI was greater than 100 µM in the assay with M19-MEL melanoma; 17.1 µM with HCT-116 colon; greater than 100 µM in the assay on KM12 colon; greater than 90.9 µM with CAKI-1 renal; greater than 100 µM in the assay with KM20L2 colon; 14.6 µM with SNB-75 CNS. The TGI in the assay on UACC-257 melanoma is greater than 94.6 µM; in the assay on MDA-MB-231 breast, 26.2 µM; in the assay with UACC-62 melanoma, greater than 100 µM; with OVCAR-4 ovarian, 22.4 µM.
As to `CNC(=O)/C(=C/c1ccc(OC)cc1)c1cc(OC)c(OC)c(OC)c1`, the TGI was greater than 100 µM in the assay with M19-MEL melanoma; greater than 72.4 µM with HCT-116 colon; greater than 83.9 µM with KM12 colon; greater than 100 µM in the assay on CAKI-1 renal; 2.72 µM in the assay on KM20L2 colon; 4.4 µM in the assay on SNB-75 CNS. The TGI in the assay with UACC-257 melanoma is greater than 90 µM; in the assay on MDA-MB-231 breast, greater than 77.9 µM; with UACC-62 melanoma it was greater than 48.6 µM; in the assay with OVCAR-4 ovarian, 99.7 µM.
In the case of `NC1=NCC(c2ccccn2)C1c1ccc(F)cc1` (configuration not stated), the TGI in the assay on M19-MEL melanoma, in the assay with HCT-116 colon, in the assay with KM12 colon, in the assay on CAKI-1 renal, in the assay on KM20L2 colon and in the assay with SNB-75 CNS was greater than 100 µM in each case. In addition, the TGI in the assay with UACC-257 melanoma, in the assay with UACC-62 melanoma and with OVCAR-4 ovarian was greater than 100 µM throughout.
On to `O=C1c2ccccc2C(=O)c2sc(Nc3ccc(Cl)cc3)nc21`, for which the TGI with M19-MEL melanoma worked out at 1.56 µM; in the assay on HCT-116 colon, 3.4 µM; with KM12 colon, 5.03 µM; in the assay with CAKI-1 renal, 5.86 µM; in the assay on KM20L2 colon, 33.9 µM; with SNB-75 CNS, 12.7 µM. In addition, the TGI amounted to 3.28 µM in the assay on UACC-257 melanoma, 7.38 µM in the assay on MDA-MB-231 breast, 4.05 µM in the assay on UACC-62 melanoma and 4.12 µM in the assay on OVCAR-4 ovarian. The GI50 in the assay with MDA-MB-231 breast was 1.17 µM.
Turning to `CC(=O)OCC1OC(n2c(=S)n(-c3ccccc3)c(=O)c3cc(Br)ccc32)C(OC(C)=O)C(OC(C)=O)C1OC(C)=O` (configuration not stated), the TGI with M19-MEL melanoma is greater than 100 µM; with HCT-116 colon, greater than 100 µM; in the assay with KM12 colon, greater than 100 µM; with CAKI-1 renal, greater than 100 µM; in the assay with KM20L2 colon, greater than 100 µM; in the assay with SNB-75 CNS, 99.2 µM and > 100 µM. Also, the TGI in the assay on UACC-257 melanoma, with UACC-62 melanoma and in the assay on OVCAR-4 ovarian was greater than 100 µM each time. Also, the GI50 in the assay on HCT-116 colon is greater than 100 µM; with SNB-75 CNS, 33.8 µM and > 100 µM; in the assay on OVCAR-4 ovarian it was 10.6 µM and > 100 µM.
Turning to `Cc1ccccc1NC(=O)C(=O)CC(=O)C1CCOC1=O` (configuration not stated), the TGI in the assay with M19-MEL melanoma, in the assay on HCT-116 colon, in the assay on KM12 colon, with CAKI-1 renal, in the assay on KM20L2 colon and with SNB-75 CNS was greater than 100 µM each time. The TGI with UACC-257 melanoma, with UACC-62 melanoma and in the assay with OVCAR-4 ovarian was greater than 100 µM in each case.
As for `COc1ccc(C(=O)C/C(=N/NC(N)=S)C(=O)Nc2ccccc2)cc1`, the TGI with M19-MEL melanoma, in the assay with HCT-116 colon, in the assay with KM12 colon, with CAKI-1 renal, with KM20L2 colon and in the assay on SNB-75 CNS was greater than 100 µM in each case. Moreover, the TGI with UACC-257 melanoma, in the assay with UACC-62 melanoma and in the assay with OVCAR-4 ovarian was greater than 100 µM each time.
As for `Cc1cccc(C)c1NC(=O)CCCC(=O)C(C#N)c1ccc(Cl)cc1` (configuration not stated), the TGI in the assay on M19-MEL melanoma, in the assay with HCT-116 colon, in the assay on KM12 colon, in the assay on CAKI-1 renal, in the assay on KM20L2 colon and in the assay on SNB-75 CNS was greater than 100 µM each time. Besides, the TGI with UACC-257 melanoma, with UACC-62 melanoma and in the assay with OVCAR-4 ovarian was greater than 100 µM in each case.
For the compound `C[CH2][Ge]([CH2]C)([CH2]C)[O]C(=O)C([O][Ge]([CH2]C)([CH2]C)[CH2]C)c1ccccc1` (configuration not stated), the GI50 with M19-MEL melanoma is 16.9 µM; in the assay on HCT-116 colon it was 13.9 µM; with KM12 colon it was 11.9 µM; with CAKI-1 renal, 19.2 µM; in the assay on KM20L2 colon it was 17 µM; in the assay with SNB-75 CNS, 18.3 µM. In addition, the values for the GI50 in the assay with UACC-257 melanoma, with UACC-62 melanoma and in the assay on OVCAR-4 ovarian were 15.2 µM, 14.5 µM and 6.36 µM, respectively. The TGI in the assay with M19-MEL melanoma came out at 42.9 µM; in the assay with HCT-116 colon, 30.2 µM; in the assay with KM12 colon it was 26.1 µM; in the assay with CAKI-1 renal, 44.9 µM; in the assay on KM20L2 colon, 42.8 µM; in the assay with SNB-75 CNS, 62.7 µM. Besides, the TGI with UACC-257 melanoma was 58.4 µM; with UACC-62 melanoma, 30.7 µM; with OVCAR-4 ovarian it was greater than 100 µM.
As for `CN(C)CCC(=O)N1CCc2c([nH]c3ccccc23)C1c1cccnc1` (configuration not stated), the TGI in the assay on M19-MEL melanoma, in the assay with HCT-116 colon, with KM12 colon, in the assay with CAKI-1 renal, with KM20L2 colon and in the assay with SNB-75 CNS was greater than 100 µM in each case. The TGI with UACC-257 melanoma, with UACC-62 melanoma and in the assay with OVCAR-4 ovarian was greater than 100 µM throughout.
On to `COc1ccc(/C(=C\c2cc(OC)c(OC)c(OC)c2)C(=O)O)cc1`, for which the TGI with M19-MEL melanoma was greater than 100 µM; in the assay on HCT-116 colon, greater than 100 µM; in the assay on KM12 colon, 85.6 µM; in the assay with CAKI-1 renal, greater than 100 µM; in the assay with KM20L2 colon it was 45 µM; with SNB-75 CNS, 75.1 µM. The TGI in the assay on UACC-257 melanoma, with UACC-62 melanoma and with OVCAR-4 ovarian was greater than 100 µM in each case.
As to `Cc1nnc2n1N=C(c1ccc(-c3ccc([N+](=O)[O-])cc3)o1)CS2`, the TGI in the assay on M19-MEL melanoma, in the assay with HCT-116 colon, in the assay on KM12 colon, with CAKI-1 renal, in the assay with KM20L2 colon and in the assay with SNB-75 CNS was greater than 100 µM throughout. The TGI in the assay on UACC-257 melanoma, with UACC-62 melanoma and in the assay with OVCAR-4 ovarian was greater than 100 µM each time.
Regarding `CCOC(=O)C1=C(c2ccccc2)NC(c2ccccc2)=C(C(=O)OCC)c2c1c(=O)cc[nH]c2=O`, the TGI in the assay on M19-MEL melanoma, with HCT-116 colon, with KM12 colon, in the assay with CAKI-1 renal, in the assay on KM20L2 colon and in the assay on SNB-75 CNS was greater than 100 µM in each case. Also, the TGI in the assay with UACC-257 melanoma, in the assay on UACC-62 melanoma and in the assay on OVCAR-4 ovarian was greater than 100 µM in each case.
On to `CCOC(=O)C1=C(C)N(NC(=O)OC)C2(N)N(NC(=O)OC)C(C)=C(C(=O)OCC)C12C#N` (configuration not stated), for which the TGI in the assay with M19-MEL melanoma, with HCT-116 colon, in the assay on KM12 colon, with CAKI-1 renal, in the assay on KM20L2 colon and in the assay on SNB-75 CNS was greater than 100 µM each time. Further, the TGI in the assay with UACC-257 melanoma, in the assay on UACC-62 melanoma and in the assay on OVCAR-4 ovarian was greater than 100 µM each time.
